Patent US9567322B2, “Substituted tetrahydropyrans and method of use” (AbbVie S.á.r.l., priority 2014, dated 2017)

Target: T1, F508delCFTR (Homo sapiens, UniProt P13569, DEL508-508)
T1 construct: expressed in transfected cells; host or cells: CFBE41o- (CFBE41o-F508delCFTR-HRP), doxycycline-inducible
Assay: Cell Surface Expression-Horse Radish Peroxidase (CSE-HRP) assay
Type: cell-based
Settings: CFBE41o-F508delCFTR-HRP cells; for EC50: cell surface expression, luminescence readout, 18-24 hours at 33° C., highest concentration tested 20 μM, 8-point curve; for Maximum % activity: maximum at any tested concentration, normalized to on-plate positive control (3 μM) and DMSO
Text: Cell Surface Expression-Horse Radish Peroxidase (CSE-HRP) Assay:
A cellular assay for measuring the F508delCFTR cell surface expression after correction with test compounds was developed in human lung derived epithelial cell line (CFBE41o-) (Veit G et al, (2012) Mol Biol Cell. 23(21): 4188-4202). This was achieved by expressing the F508delCFTR mutation along with a horseradish peroxidase (HRP) in the fourth exofacial loop and then measuring the HRP activity using luminescence readout from these cells, CFBE41o-F508delCFTR-HRP, that were incubated overnight with the test corrector compounds. Briefly, for this primary assay, the CFBE41o-F508delCFTR-HRP cells were plated in 384-well plates (Greiner Bio-one; Cat 781080) at 4,000 cells/well along with 0.5 μg/mL doxycycline to induce the F508delCFTR-HRP expression and further incubated at 37° C., 5% CO2 for 72 hours. The test compounds were then added at the required concentrations and further incubated for 18-24 hours at 33° C. The highest concentration tested was 20 μM with an 8-point concentration response curve using a 3-fold dilution. Three replicate plates were run to determine one EC50. All plates contained negative controls (dimethyl sulfoxide, DMSO) and positive controls (3 μM of 3-[(2R,4R)-4-({[1-(2,2-difluoro-1,3-benzodioxol-5-yl)cyclopropyl]carbonyl}amino)-7-methoxy-3,4-dihydro-2H-chromen-2-yl]benzoic acid) as well as on-plate concentration response of the positive control. Post incubation, the plates were washed 5× times with Dulbecco's phosphate buffered saline (DPBS), followed by the addition of the HRP substrate, luminol (50 μL), and measuring the HRP activity using luminescence readout on EnVision® Multilabel Plate Reader (Perkin Elmer; product number 2104-0010). The raw counts from the experiment are analyzed using Accelrys® Assay Explorer v3.3.
Z′ greater than 0.5 was used as passing quality control criteria for the plates.
The Z′ is defined as: 1−[3*SDPositive Control+3*SDNegative Control/Absolute(MeanPositive Control−MeanNegative Control)],
wherein “SD” is standard deviation.
The % activity measured at each of the 8 test concentrations of the test compound was normalized to the on-plate positive control using the following formula: % activity=[(test compound response−DMSO response)/(positive control response−DMSO response)]*100
The maximum % activity achieved for the test compound at any tested concentration is presented in Table 1 along with the EC50 calculated using the following general sigmoidal curve with variable Hill slope equation (described as Model 42 in the Accelrys® Assay Explorer v3.3 software): y=(a−d)/(1+(x/c)^b)+d General sigmoidal curve with concentration, response, top, bottom, EC50 and Hill slope.
This model describes a sigmoidal curve with an adjustable baseline, a. The equation can be used to fit curves where response is either increasing or decreasing with respect to the independent variable, “x”.
“x” is a concentration of drug under test.
“a” is the maximum response, and “d” is the minimum response
“c” is the inflection point (EC50) for the curve. That is, “y” is halfway between the lower and upper asymptotes when x=c.
“b” is the slope-factor or Hill coefficient. The sign of b is positive when the response increases with increasing dose and is negative when the response decreases with increasing dose (inhibition).

T1 sequence (P13569 with tags, fused parts or gaps DEL508-508): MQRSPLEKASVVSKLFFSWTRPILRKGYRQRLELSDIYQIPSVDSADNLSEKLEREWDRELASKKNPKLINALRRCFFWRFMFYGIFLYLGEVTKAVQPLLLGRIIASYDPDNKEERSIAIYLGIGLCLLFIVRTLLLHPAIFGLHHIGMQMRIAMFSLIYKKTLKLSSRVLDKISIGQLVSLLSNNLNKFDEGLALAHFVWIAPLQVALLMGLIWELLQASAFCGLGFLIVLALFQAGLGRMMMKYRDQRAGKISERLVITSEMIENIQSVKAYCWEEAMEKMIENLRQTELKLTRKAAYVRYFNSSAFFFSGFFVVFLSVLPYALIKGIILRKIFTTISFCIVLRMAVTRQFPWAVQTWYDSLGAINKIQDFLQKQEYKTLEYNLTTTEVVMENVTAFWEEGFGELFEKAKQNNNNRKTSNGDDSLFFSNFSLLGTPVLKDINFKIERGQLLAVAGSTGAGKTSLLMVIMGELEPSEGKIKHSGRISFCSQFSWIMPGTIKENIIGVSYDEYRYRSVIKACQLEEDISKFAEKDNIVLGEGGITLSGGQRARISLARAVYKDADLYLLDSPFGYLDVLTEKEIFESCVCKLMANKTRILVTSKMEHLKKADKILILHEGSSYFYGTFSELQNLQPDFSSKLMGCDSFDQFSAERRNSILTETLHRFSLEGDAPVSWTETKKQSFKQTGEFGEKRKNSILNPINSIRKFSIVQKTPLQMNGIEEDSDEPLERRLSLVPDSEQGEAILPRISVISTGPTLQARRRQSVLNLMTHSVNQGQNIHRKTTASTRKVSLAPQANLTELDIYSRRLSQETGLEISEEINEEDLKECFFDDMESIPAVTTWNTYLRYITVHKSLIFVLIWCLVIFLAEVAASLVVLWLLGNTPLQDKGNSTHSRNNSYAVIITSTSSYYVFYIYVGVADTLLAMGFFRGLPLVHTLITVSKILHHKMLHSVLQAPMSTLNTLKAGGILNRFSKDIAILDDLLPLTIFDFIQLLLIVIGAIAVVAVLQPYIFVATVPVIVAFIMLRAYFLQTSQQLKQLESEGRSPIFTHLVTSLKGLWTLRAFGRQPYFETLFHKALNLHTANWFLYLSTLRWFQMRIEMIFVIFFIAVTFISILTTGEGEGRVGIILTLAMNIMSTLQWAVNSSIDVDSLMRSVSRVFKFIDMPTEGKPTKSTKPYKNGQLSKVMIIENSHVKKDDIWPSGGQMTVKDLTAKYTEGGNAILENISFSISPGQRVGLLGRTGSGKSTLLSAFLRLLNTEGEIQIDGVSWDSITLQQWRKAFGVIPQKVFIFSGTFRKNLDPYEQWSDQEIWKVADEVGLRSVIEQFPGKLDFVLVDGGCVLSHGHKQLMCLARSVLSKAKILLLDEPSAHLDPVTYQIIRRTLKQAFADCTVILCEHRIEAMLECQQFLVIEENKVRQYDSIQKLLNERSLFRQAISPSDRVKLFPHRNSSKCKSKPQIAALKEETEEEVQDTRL

Compound | EC50 [nM] | Maximum % activity [%]
COc1ccc([C@@H]2C[C@H](NC(=O)C3(c4ccc5c(c4)OC(F)(F)O5)CC3)C[C@H](c3ccc(C(=O)O)cc3)O2)cc1 (racemic) [Example 57, rac-4-[(2R,4R,6S)-4-({[1-(2,2-difluoro-1,3-benzodioxol-5-yl)cyclopropyl]carbonyl}amino)-6-(4-methoxyphenyl)tetrahydro-2H-pyran-2-yl]benzoic acid] | 580 | 90
COC(=O)c1ccc([C@H]2C[C@@H](NC(=O)C3(c4ccc5c(c4)OC(F)(F)O5)CC3)C[C@@H](c3ccccc3)O2)cc1 (racemic) [Example 48, methyl rac-4-[(2R,4S,6S)-4-({[1-(2,2-difluoro-1,3-benzodioxol-5-yl)cyclopropyl]carbonyl}amino)-6-phenyltetrahydro-2H-pyran-2-yl]benzoate] | 830 | 100
COC(=O)c1cccc([C@H]2C[C@@H](NC(=O)C3(c4ccc5c(c4)OC(F)(F)O5)CC3)CCO2)c1 [Example 17, methyl 3-[(2R,4S)-4-({[1-(2,2-difluoro-1,3-benzodioxol-5-yl)cyclopropyl]carbonyl}amino)tetrahydro-2H-pyran-2-yl]benzoate] | 1110 | 81
COc1ccc([C@@H]2C[C@@H](NC(=O)C3(c4ccc5c(c4)OC(F)(F)O5)CC3)C[C@H](c3ccc(C(=O)O)cc3)O2)cc1 (racemic) [Example 56, rac-4-[(2R,4S,6S)-4-({[1-(2,2-difluoro-1,3-benzodioxol-5-yl)cyclopropyl]carbonyl}amino)-6-(4-methoxyphenyl)tetrahydro-2H-pyran-2-yl]benzoic acid] | 1900 | 89
COC(=O)c1ccc([C@H]2C[C@@H](NC(=O)C3(c4ccc5c(c4)OC(F)(F)O5)CC3)CCO2)cc1 [Example 29, methyl 4-[(2R,4S)-4-({[1-(2,2-difluoro-1,3-benzodioxol-5-yl)cyclopropyl]carbonyl}amino)tetrahydro-2H-pyran-2-yl]benzoate] | 1050 | 107
COC(=O)c1ccc([C@H]2C[C@H](NC(=O)C3(c4ccc5c(c4)OC(F)(F)O5)CC3)C[C@@H](C)O2)cc1 (racemic) [Example 46, methyl rac-4-[(2R,4R,6R)-4-({[1-(2,2-difluoro-1,3-benzodioxol-5-yl)cyclopropyl]carbonyl}amino)-6-methyltetrahydro-2H-pyran-2-yl]benzoate] | 4560 | 67
COC(=O)c1ccc([C@@H]2C[C@H](NC(=O)C3(c4ccc5c(c4)OC(F)(F)O5)CC3)CCO2)cc1 [Example 28, methyl 4-[(2S,4R)-4-({[1-(2,2-difluoro-1,3-benzodioxol-5-yl)cyclopropyl]carbonyl}amino)tetrahydro-2H-pyran-2-yl]benzoate] | 3310 | 73
O=C(N[C@@H]1CCO[C@@H](c2ccc(Br)cc2)C1)C1(c2ccc3c(c2)OC(F)(F)O3)CC1 [Example 20, N-[(2R,4R)-2-(4-bromophenyl)tetrahydro-2H-pyran-4-yl]-1-(2,2-difluoro-1,3-benzodioxol-5-yl)cyclopropanecarboxamide] | 7300 | 45
O=C(N[C@@H]1CCO[C@@H](c2cccc(CO)c2)C1)C1(c2ccc3c(c2)OC(F)(F)O3)CC1 (racemic) [Example 6, rac-1-(2,2-difluoro-1,3-benzodioxol-5-yl)-N-{(2R,4R)-2-[3-(hydroxymethyl)phenyl]tetrahydro-2H-pyran-4-yl}cyclopropanecarboxamide] | 5150 | 32
CC1(C)C[C@H](NC(=O)C2(c3ccc4c(c3)OC(F)(F)O4)CC2)C[C@H](c2ccc(C(=O)O)cc2)O1 (racemic) [Example 35, rac-4-[(2R,4R)-4-({[1-(2,2-difluoro-1,3-benzodioxol-5-yl)cyclopropyl]carbonyl}amino)-6,6-dimethyltetrahydro-2H-pyran-2-yl]benzoic acid] | 2870 | 89
O=C(O)c1cccc([C@@H]2C[C@H](NC(=O)C3(c4ccc5c(c4)OC(F)(F)O5)CC3)C[C@H](c3ccccc3)O2)c1 [Example 26, 3-[(2S,4R,6R)-4-({[1-(2,2-difluoro-1,3-benzodioxol-5-yl)cyclopropyl]carbonyl}amino)-6-phenyltetrahydro-2H-pyran-2-yl]benzoic acid] | ≥ 20000 | 16
COC(=O)c1cccc([C@H]2C[C@@H](NC(=O)C3(c4ccc5c(c4)OC(F)(F)O5)CC3)CCO2)c1 (racemic) [Example 3, methyl rac-3-[(2R,4S)-4-({[1-(2,2-difluoro-1,3-benzodioxol-5-yl)cyclopropyl]carbonyl}amino)tetrahydro-2H-pyran-2-yl]benzoate] | 1410 | 64
O=C(O)c1cccc([C@H]2C[C@H](NC(=O)C3(c4ccc5c(c4)OC(F)(F)O5)CC3)CCO2)c1 (racemic) [Example 5, rac-3-[(2R,4R)-4-({[1-(2,2-difluoro-1,3-benzodioxol-5-yl)cyclopropyl]carbonyl}amino)tetrahydro-2H-pyran-2-yl]benzoic acid] | ≥ 20000 | 13
CCOC(=O)c1cccc([C@H]2C[C@@H](NC(=O)C3(c4ccc5c(c4)OC(F)(F)O5)CC3)C[C@@H](c3cccc(OC)c3)O2)c1 (racemic) [Example 68, ethyl rac-3-[(2R,4R,6S)-4-({[1-(2,2-difluoro-1,3-benzodioxol-5-yl)cyclopropyl]carbonyl}amino)-6-(3-methoxyphenyl)tetrahydro-2H-pyran-2-yl]benzoate] | 1040 | 108
COC(=O)c1ccc([C@H]2C[C@@H](NC(=O)C3(c4ccc5c(c4)OC(F)(F)O5)CC3)CCO2)c(C)c1 (racemic) [Example 36, methyl rac-4-[(2R,4S)-4-({[1-(2,2-difluoro-1,3-benzodioxol-5-yl)cyclopropyl]carbonyl}amino)tetrahydro-2H-pyran-2-yl]-3-methylbenzoate] | 570 | 100
CC(C)(O)c1cccc([C@H]2C[C@@H](NC(=O)C3(c4ccc5c(c4)OC(F)(F)O5)CC3)CCO2)c1 (racemic) [Example 10, rac-1-(2,2-difluoro-1,3-benzodioxol-5-yl)-N-{(2R,4S)-2-[3-(2-hydroxypropan-2-yl)phenyl]tetrahydro-2H-pyran-4-yl}cyclopropanecarboxamide] | 2090 | 58
O=C(O)c1cccc([C@@H]2C[C@H](NC(=O)C3(c4ccc5c(c4)OC(F)(F)O5)CC3)CCO2)c1 [Example 18, 3-[(2S,4R)-4-({[1-(2,2-difluoro-1,3-benzodioxol-5-yl)cyclopropyl]carbonyl}amino)tetrahydro-2H-pyran-2-yl]benzoic acid] | ≥ 20000 | 3
O=C(N[C@H]1CCO[C@@H](c2ccccc2)C1)C1(c2ccc3c(c2)OC(F)(F)O3)CC1 (racemic) [Example 1, rac-1-(2,2-difluoro-1,3-benzodioxol-5-yl)-N-[(2R,4S)-2-phenyltetrahydro-2H-pyran-4-yl]cyclopropanecarboxamide] | 1700 | 62
CCOC(=O)c1cc(C)cc([C@H]2C[C@@H](NC(=O)C3(c4ccc5c(c4)OC(F)(F)O5)CC3)C[C@@H](c3ccccc3)O2)c1 (racemic) [Example 72, ethyl rac-3-[(2R,4S,6S)-4-({[1-(2,2-difluoro-1,3-benzodioxol-5-yl)cyclopropyl]carbonyl}amino)-6-phenyltetrahydro-2H-pyran-2-yl]-5-methylbenzoate] | 1160 | 106
